Reference: patent publication US6914045B2, “Glycopeptide antibiotics” (Wyeth Holdings Corporation, priority 2001, dated 2005)
≈ marks a conversion by molar mass, not a printed value.

Columns and labels:
Experiment in all cases: in vitro antibacterial evaluation, MIC by broth dilution
Assay type in all cases: cell-based
[1] = tested on: Enterococcus sp.; conditions: broth dilution, 18 hours at 35° C.
Procedure, shortened: (§1)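 Following National Committee for Clinical Laboratory Standards recommendations (M7-A2), susceptibility was measured by dilution in Muller-Hinton II […]. Bacteria were seeded at 5×10^5 CFU/mL against compound concentrations from 64 down to 0.06 μg/mL.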

[2] = tested on: Escherichia coli; conditions: 18 hours at 35° C.
Procedure, shortened: as §1

[3] = tested on: Staphylococcus sp.; conditions: broth dilution, 18 hours at 35° C.
Procedure, shortened: as §1

[4] = tested on: Streptococcus sp.; conditions: broth dilution, 18 hours at 35° C.
Procedure, shortened: as §1

CC(C)CCC(=O)OC1C(OC2C(CO)OC(Oc3ccc(CC4NC(=O)C(C(C)c5ccccc5)NC(=O)CNC(=O)C(CO)NC(=O)C(C(O)C5CNC(=N)N5C5OC(CO)C(O)C(O)C5O)NC(=O)C(C(O)C5CNC(=N)N5)NC4=O)cc3)C(O)C2O)OC(CO)C(O)C1O (stereo not drawn) [Example 270a, Cyclo[glycyl-β-methylphenylalanyl-O-[4-O-[2-O-(4-methylventanovl)hexopyranosyl]-hexopyranosyl]tyrosyl-3-(2-iminoimidazolidin-4-yl)seryl-3-(3-hexopyranosyl-2-iminoimidazolidin-4-yl)serylseryl]]
MIC Enterococcus avium (GC 4558) ([1]; Enterococcus avium (GC 4558)): 16 µg/mL (≈ 11.5 µM)
MIC Enterococcus faecalis (ATCC 29212) ([1]; Enterococcus faecalis (ATCC 29212)): 16 µg/mL (≈ 11.5 µM)
MIC Enterococcus faecalis (GC 4553) ([1]; Enterococcus faecalis (GC 4553)): 16 µg/mL (≈ 11.5 µM)
MIC Enterococcus faecalis (GC 4554) ([1]; Enterococcus faecalis (GC 4554)): 32 µg/mL (≈ 23 µM)
MIC Enterococcus faecium (GC 2243) ([1]; Enterococcus faecium (GC 2243)): 16 µg/mL (≈ 11.5 µM)
MIC Enterococcus faecium (GC 4556) ([1]; Enterococcus faecium (GC 4556)): 16 µg/mL (≈ 11.5 µM)
MIC Enterococcus faecium (GC 4557) ([1]; Enterococcus faecium (GC 4557)): 4 µg/mL (≈ 2.87 µM)
MIC Enterococcus faecalis (ATCC 29212) ([1]; strain ATCC 29212): 16 µg/mL (≈ 11.5 µM)
MIC Enterococcus faecalis (GC 2242) ([1]; strain GC 2242): 16 µg/mL (≈ 11.5 µM)
MIC Enterococcus faecium (GC 2243) ([1]; strain GC 2243): 16 µg/mL (≈ 11.5 µM)
MIC Enterococcus faecalis (GC 4552) ([1]; strain GC 4552): 16 µg/mL (≈ 11.5 µM)
MIC Enterococcus faecalis (GC 4553) ([1]; strain GC 4553): 16 µg/mL (≈ 11.5 µM)
MIC Enterococcus faecalis (GC 4554) ([1]; strain GC 4554): 32 µg/mL (≈ 23 µM)
MIC Enterococcus faecium (GC 4556) ([1]; strain GC 4556): 16 µg/mL (≈ 11.5 µM)
MIC Enterococcus faecium (GC 4557) ([1]; strain GC 4557): 4 µg/mL (≈ 2.87 µM)
MIC Enterococcus avium (GC 4558) ([1]; strain GC 4558): 16 µg/mL (≈ 11.5 µM)
MIC Escherichia coli (ATCC 25922) ([2]; Escherichia coli (ATCC 25922)): >64 µg/mL
MIC Escherichia coli (GC 4559) ([2]; Escherichia coli (GC 4559)): >64 µg/mL
MIC Escherichia coli (GC 4560) ([2]; Escherichia coli (GC 4560)): 2 µg/mL (≈ 1.44 µM)
MIC Coagulase Negative Staphylococcus (GC 4547) [3]: 2 µg/mL (≈ 1.44 µM)
MIC Coagulase Negative Staphylococcus (GC 4548) [3]: 2 µg/mL (≈ 1.44 µM)
MIC Coagulase Negative Staphylococcus (GC 4549) [3]: 2 µg/mL (≈ 1.44 µM)
MIC Coagulase Negative Staphylococcus (GC 4551) [3]: 4 µg/mL (≈ 2.87 µM)
MIC Staphylococcus aureus (ATCC 29213) [3]: 4 µg/mL (≈ 2.87 µM)
MIC Staphylococcus aureus (GC 1131) [3]: 4 µg/mL (≈ 2.87 µM)
MIC Staphylococcus aureus (GC 4541) [3]: 4 µg/mL (≈ 2.87 µM)
MIC Staphylococcus aureus (GC 4542) [3]: 4 µg/mL (≈ 2.87 µM)
MIC Staphylococcus aureus (GC 4544) [3]: 4 µg/mL (≈ 2.87 µM)
MIC Staphylococcus aureus (GC 4545) [3]: 4 µg/mL (≈ 2.87 µM)
MIC Staphylococcus aureus-SMITH (GC 4543) [3]: 4 µg/mL (≈ 2.87 µM)
MIC Staphylococcus haemolyticus (GC 4546) [3]: 2 µg/mL (≈ 1.44 µM)
MIC Staphylococcus aureus (ATCC 29213) ([3]; strain ATCC 29213): 4 µg/mL (≈ 2.87 µM)
MIC Staphylococcus aureus (GC 1131) ([3]; strain GC 1131): 4 µg/mL (≈ 2.87 µM)
MIC Staphylococcus aureus (GC 4541) ([3]; strain GC 4541): 4 µg/mL (≈ 2.87 µM)
MIC Staphylococcus aureus (GC 4542) ([3]; strain GC 4542): 4 µg/mL (≈ 2.87 µM)
MIC Staphylococcus aureus (GC 4544) ([3]; strain GC 4544): 4 µg/mL (≈ 2.87 µM)
MIC Staphylococcus aureus (GC 4545) ([3]; strain GC 4545): 4 µg/mL (≈ 2.87 µM)
MIC Staphylococcus haemolyticus (GC 4546) ([3]; strain GC 4546): 2 µg/mL (≈ 1.44 µM)
MIC Coagulase Negative Staphylococcus (GC 4547) ([3]; strain GC 4547): 2 µg/mL (≈ 1.44 µM)
MIC Coagulase Negative Staphylococcus (GC 4548) ([3]; strain GC 4548): 2 µg/mL (≈ 1.44 µM)
MIC Coagulase Negative Staphylococcus (GC 4549) ([3]; strain GC 4549): 2 µg/mL (≈ 1.44 µM)
MIC Coagulase Negative Staphylococcus (GC 4551) ([3]; strain GC 4551): 4 µg/mL (≈ 2.87 µM)
MIC Staphylococcus aureus-SMITH (GC 4543) ([3]; strain SMITH GC 4543): 4 µg/mL (≈ 2.87 µM)
MIC Streptococcus agalactiae (GC 4564) ([4]; strain GC 4564): 1 µg/mL (≈ 0.718 µM)
MIC Streptococcus pyogenes (ID-3187) ([4]; strain ID-3187): 1 µg/mL (≈ 0.718 µM)
